{
  "source": "patent EP1210336B1",
  "about": "“SUBSTITUTED BENZIMIDAZOLES AS NON-NUCLEOSIDE INHIBITORS OF REVERSE TRANSCRIPTASE” (THE UNITED STATES OF AMERICA, as represented by the …, priority 1999, dated 2001)",
  "key": {"WT virus (NL4-3)": {"system": "WT virus (NL4-3)", "test": "microbe, parasite or virus in culture", "assay_type": "cell-based, HIV-1", "settings": "Human immunodeficiency virus 1, NL43, CEM-SS, read-out: EC50", "outline": "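CEM-SS cells (5 x 10^3/well) infected with HIV-1 at an MOI giving complete killing by day 6 (e.g., 0.01-0.05), with serial half-log compound dilutions in triplicate. After 6 days at 37°C, viability read by XTT reduction at 450 nm. CIC50 derived from protection against cytopathic killing.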"}, "HIV-1 WT RT": {"molecular_target": "T1, HIV-1 WT RT (Human immunodeficiency virus type 1 group M subtype B, UniProt P03366)", "T1 construct": "purified RT protein (0.015 mg/mL) was incubated in a 100 µL reaction mixture", "test": "biochemical", "settings": "for pIC50: read-out: IC50"}, "NL4-3 (WT)": {"system": "NL4-3 (WT)", "test": "Cytopathic cell killing assay, cross-resistance profile, infected MT-4 cells", "assay_type": "cell-based, HIV-1", "outline": "(§1)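 XTT formazan absorbance (450 nm) after 6 days at 37°C measured survival of HIV-1-infected MT-4 cells treated with half-log compound dilutions in triplicate. Viruses were pre-titered to equivalent infection levels and used at an MOI killing all cells by day 6.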"}, "HIV-1 variant Y188H": {"system": "HIV-1 variant Y188H", "test": "Cytopathic cell killing assay, cross-resistance profile, infected MT-4 cells", "assay_type": "cell-based", "settings": "Human immunodeficiency virus 1, MT4", "outline": "as §1"}, "HIV-1 variant K103N": {"system": "HIV-1 variant K103N", "test": "Cytopathic cell killing assay, cross-resistance profile, infected MT-4 cells", "assay_type": "cell-based", "outline": "as §1"}, "HIV-1 variant M184l": {"system": "HIV-1 variant M184l", "test": "Cytopathic cell killing assay, cross-resistance profile, infected MT-4 cells", "assay_type": "cell-based", "settings": "Human immunodeficiency virus 1, MT4", "outline": "as §1"}, "HIV-1 variant L74V": {"system": "HIV-1 variant L74V", "test": "Cytopathic cell killing assay, cross-resistance profile, infected MT-4 cells", "assay_type": "cell-based", "settings": "Human immunodeficiency virus 1, MT4, Table 8; isolate 1.74V", "outline": "as §1"}, "HIV-1 variant K101E": {"system": "HIV-1 variant K101E", "test": "Cytopathic cell killing assay, cross-resistance profile, infected MT-4 cells", "assay_type": "cell-based", "settings": "isolate K101E", "outline": "as §1"}, "HIV-1 variant V106A": {"system": "HIV-1 variant V106A", "test": "Cytopathic cell killing assay, cross-resistance profile, infected MT-4 cells", "assay_type": "cell-based", "settings": "Human immunodeficiency virus 1, MT4, Table 8; isolate V 106A", "outline": "as §1"}, "HIV-1 isolate 4xAZT": {"system": "HIV-1 isolate 4xAZT", "test": "Cytopathic cell killing assay, cross-resistance profile, infected MT-4 cells", "assay_type": "cell-based", "settings": "Human immunodeficiency virus 1, MT4, Table 8; isolate 4XAZT", "outline": "as §1"}, "HIV-1 variant L100I": {"system": "HIV-1 variant L100I", "test": "Cytopathic cell killing assay, cross-resistance profile, infected MT-4 cells", "assay_type": "cell-based", "outline": "as §1"}, "HIV-1 variant V179D": {"system": "HIV-1 variant V179D", "test": "Cytopathic cell killing assay, cross-resistance profile, infected MT-4 cells", "assay_type": "cell-based", "settings": "Human immunodeficiency virus 1, MT4, Table 8; isolate V179D", "outline": "as §1"}, "HIV-1 variant Y181C": {"system": "HIV-1 variant Y181C", "test": "Cytopathic cell killing assay, cross-resistance profile, infected MT-4 cells", "assay_type": "cell-based", "settings": "Human immunodeficiency virus 1, MT4, Table 10 (values in µM); isolate Y181C", "outline": "as §1"}, "HIV-1 variant V108I": {"system": "HIV-1 variant V108I", "test": "Cytopathic cell killing assay, cross-resistance profile, infected MT-4 cells", "assay_type": "cell-based", "outline": "as §1"}, "HIV-1 variant Y188C": {"system": "HIV-1 variant Y188C", "test": "Cytopathic cell killing assay, cross-resistance profile, infected MT-4 cells", "assay_type": "cell-based", "settings": "Human immunodeficiency virus 1, MT4, Table 8; isolate Y 188C", "outline": "as §1"}, "HIV-1 variant A98G": {"system": "HIV-1 variant A98G", "test": "Cytopathic cell killing assay, cross-resistance profile, infected MT-4 cells", "assay_type": "cell-based", "settings": "Human immunodeficiency virus 1, MT4, Table 8; isolate A9SG", "outline": "as §1"}},
  "note": "pEC50, pIC50: −log10 of the molar value. Where two headings read alike, the source gives them in different places.",
  "data": [
    {"compound": "COc1cccc2c1nc(-c1c(F)cccc1F)n2Cc1c(F)cccc1F", "note": "[compound 44, 1-(2,6-difluorobenzyl)-2-(2,6-difluorophenyl)-4-methoxylbenzimidazole]", "values": [
      {"measurement": "pEC50", "setting": "WT virus (NL4-3); Table 7, concentration reducing cell killing or virus production by 50%, HIV-1 WT", "value": 8.34},
      {"measurement": "pEC50", "setting": "WT virus (NL4-3); Table 11, CEMSS/NL4-3, NRVC = reduction in viral CPE not seen (footnote)", "value": 7.22},
      {"measurement": "pEC50", "setting": "WT virus (NL4-3); cytopathic cell killing assay, HIV-1 WT", "value": 8.34},
      {"measurement": "pIC50", "setting": "HIV-1 WT RT; HIV-1 WT RT", "value": 8.14},
      {"measurement": "pIC50", "setting": "HIV-1 WT RT; Table 7, HIV-1 WT RT", "value": 8.14},
      {"measurement": "inhibition at 1 µM", "setting": "HIV-1 WT RT; Table 7, WT HIV-1 RT, 1 µM drug, read-out: %inhibn (1µM)", "value": 85, "unit": "%"},
      {"measurement": "pIC50", "setting": "HIV-1 WT RT; Table 11, WT RT", "value": 8.14},
      {"measurement": "pIC50", "setting": "HIV-1 WT RT; WT RT", "value": 8.14},
      {"measurement": "pEC50", "setting": "NL4-3 (WT); Human immunodeficiency virus 1, NL43, MT4, Table 8, isolate N1.43", "value": 7.22},
      {"measurement": "EC50", "setting": "NL4-3 (WT); Human immunodeficiency virus 1, NL43, MT4, Table 10 (values in µM), isolate NL4-3 (WT)", "value": 0.165, "unit": "µM"},
      {"measurement": "pEC50", "setting": "HIV-1 variant Y188H", "value": 6.59},
      {"measurement": "pEC50", "setting": "HIV-1 variant K103N; Human immunodeficiency virus 1, MT4, Table 8, isolate K103N", "value": "< 4.70"},
      {"measurement": "EC50", "setting": "HIV-1 variant K103N; Human immunodeficiency virus 1, MT4, Table 10 (values in µM), isolate K103N", "value": "> 50", "unit": "µM"},
      {"measurement": "activity against the K103N mutation / isolate", "setting": "HIV-1 variant K103N; result in words, cytopathic cell killing assay", "value": "failed to show any activity"},
      {"measurement": "pEC50", "setting": "HIV-1 variant M184l", "value": 6.80},
      {"measurement": "pEC50", "setting": "HIV-1 variant L74V", "value": 7.10},
      {"measurement": "pEC50", "setting": "HIV-1 variant K101E; Human immunodeficiency virus 1, MT4, Table 8", "value": 5.48},
      {"measurement": "EC50", "setting": "HIV-1 variant K101E; Human immunodeficiency virus 1, MT4, Table 10 (values in µM)", "value": 2.82, "unit": "µM"},
      {"measurement": "pEC50", "setting": "HIV-1 variant V106A", "value": 5.85},
      {"measurement": "pEC50", "setting": "HIV-1 isolate 4xAZT", "value": 5.22},
      {"measurement": "pEC50", "setting": "HIV-1 variant L100I; Human immunodeficiency virus 1, MT4, Table 8, isolate 1.1001", "value": 7.00},
      {"measurement": "EC50", "setting": "HIV-1 variant L100I; Human immunodeficiency virus 1, MT4, Table 10 (values in µM), isolate L1001", "value": 0.16, "unit": "µM"},
      {"measurement": "pEC50", "setting": "HIV-1 variant V179D", "value": 6.70},
      {"measurement": "EC50", "setting": "HIV-1 variant Y181C", "value": 0.26, "unit": "µM"},
      {"measurement": "pEC50", "setting": "HIV-1 variant V108I; Human immunodeficiency virus 1, MT4, Table 8, isolate V1081", "value": 5.60},
      {"measurement": "EC50", "setting": "HIV-1 variant V108I; Human immunodeficiency virus 1, MT4, Table 10 (values in µM), isolate V108l", "value": 2.82, "unit": "µM"},
      {"measurement": "pEC50", "setting": "HIV-1 variant Y188C", "value": 6.52},
      {"measurement": "pEC50", "setting": "HIV-1 variant A98G", "value": 6.52}
    ]}
  ]
}
